Key:
Cathepsin K = target: T1, Cathepsin K (Homo sapiens, UniProt P43235); experiment: Relative binding affinity was measured for Cathepsin K; conditions: read-out: Ki app
T1 sequence (P43235 whole entry): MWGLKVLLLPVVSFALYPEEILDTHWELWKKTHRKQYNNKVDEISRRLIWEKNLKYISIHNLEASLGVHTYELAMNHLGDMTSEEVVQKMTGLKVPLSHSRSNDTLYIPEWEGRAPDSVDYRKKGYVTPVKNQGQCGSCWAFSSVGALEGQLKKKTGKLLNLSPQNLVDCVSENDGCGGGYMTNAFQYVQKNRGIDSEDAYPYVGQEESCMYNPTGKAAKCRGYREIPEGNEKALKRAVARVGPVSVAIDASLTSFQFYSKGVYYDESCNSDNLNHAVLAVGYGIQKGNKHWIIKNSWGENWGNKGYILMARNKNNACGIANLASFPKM

[1] = target: T2, Cathepsin K (Homo sapiens) (UniProt P43235); experiment: Second order rate constant was measured for the inhibition of Cathepsin K
T2 sequence (whole entry): T1 sequence (P43235 whole entry)

Ki (Cathepsin K) | second-order inhibition rate constant (kobs/[I]) [1] | Structure (SMILES)
0.8 nM | 4e+06 M⁻¹ s⁻¹ | CCC[C@H](NC(=O)OCc1ccccc1)C(=O)NNC(=O)NNC(=O)[C@H](CC(C)C)NC(=O)OCc1ccccc1
100 nM | 44000 M⁻¹ s⁻¹ | CC(C)C[C@H](NC(=O)OCc1ccccc1)C(=O)NNC(=O)NNC(=O)c1ccc(OCc2ccccc2)cc1
120 nM | 38000 M⁻¹ s⁻¹ | CC(C)C[C@H](NC(=O)OCc1ccccc1)C(=O)NNC(=O)NNC(=O)c1ccccc1
1 nM | 685000 M⁻¹ s⁻¹ | CC(C)C[C@H](NC(=O)OCc1ccccc1)C(=O)NNC(=O)NNC(=O)[C@H](C)NC(=O)OCc1ccccc1
3.4 nM | 490000 M⁻¹ s⁻¹ | CC[C@H](NC(=O)OCc1ccccc1)C(=O)NNC(=O)NNC(=O)[C@H](CC(C)C)NC(=O)OCc1ccccc1
12 nM | 318000 M⁻¹ s⁻¹ | CC(C)C[C@H](NC(=O)OCc1ccccc1)C(=O)NNC(=O)NNC(=O)c1ccccc1OCc1ccccc1
0.7 nM | 3.1e+06 M⁻¹ s⁻¹ | CC(C)C[C@H](NC(=O)OCc1ccccc1)C(=O)NNC(=O)NNC(=O)[C@H](CC(C)C)NC(=O)OCc1ccccc1
27 nM | 224000 M⁻¹ s⁻¹ | CC(C)C[C@H](NC(=O)OCc1ccccc1)C(=O)NNC(=O)NNC(=O)c1cccc(OCc2ccccc2)c1
